# Measurements as given in PubChem BioAssay (NCI).
#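 The concentration for 50% growth inhibition is given as GI50. The concentration for full growth arrest is given as TGI.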
# Assays:
# Assay in all cases: inhibition of tumour cell growth, NCI panel, 384-well format
# 786-0 renal = test system: 786-0 renal
# A498 renal = test system: A498 renal
# A549 NSCLC = test system: A549 NSCLC
# ACHN renal = test system: ACHN renal
# BT-549 breast = test system: BT-549 breast
# CAKI-1 renal = test system: CAKI-1 renal
# CCRF-CEM leukemia = test system: CCRF-CEM leukemia
# COLO 205 colon = test system: COLO 205 colon
# DU-145 prostate = test system: DU-145 prostate
# EKVX NSCLC = test system: EKVX NSCLC
# HCC-2998 colon = test system: HCC-2998 colon
# HCT-116 colon = test system: HCT-116 colon
# HCT-15 colon = test system: HCT-15 colon
# HL-60(TB) leukemia = test system: HL-60(TB) leukemia
# HOP-62 NSCLC = test system: HOP-62 NSCLC
# HOP-92 NSCLC = test system: HOP-92 NSCLC
# HS 578T breast = test system: HS 578T breast
# HT29 colon = test system: HT29 colon
# IGROV1 ovarian = test system: IGROV1 ovarian
# KM12 colon = test system: KM12 colon
# LOX IMVI melanoma = test system: LOX IMVI melanoma
# M14 melanoma = test system: M14 melanoma
# MALME-3M melanoma = test system: MALME-3M melanoma
# MCF7 breast = test system: MCF7 breast
# MDA-MB-231 breast = test system: MDA-MB-231 breast
# MDA-MB-435 melanoma = test system: MDA-MB-435 melanoma
# MDA-MB-468 breast = test system: MDA-MB-468 breast
# MOLT-4 leukemia = test system: MOLT-4 leukemia
# NCI-H226 lung = test system: NCI-H226 lung
structure (smiles),measurement,setting,value
CNC(=O)c1ccc(N2C(=S)N(c3cnc(C#N)c(C(F)(F)F)c3)C(=O)C23CCC3)cc1F,GI50,786-0 renal,> 100 µM
same,TGI,786-0 renal,> 100 µM
same,GI50,A498 renal,> 100 µM
same,TGI,A498 renal,> 100 µM
same,GI50,A549 NSCLC,> 100 µM
same,TGI,A549 NSCLC,> 100 µM
same,GI50,ACHN renal,> 100 µM
same,TGI,ACHN renal,> 100 µM
same,GI50,BT-549 breast,> 100 µM
same,TGI,BT-549 breast,> 100 µM
same,GI50,CAKI-1 renal,> 100 µM
same,TGI,CAKI-1 renal,> 100 µM
same,GI50,CCRF-CEM leukemia,> 100 µM
same,TGI,CCRF-CEM leukemia,> 100 µM
same,GI50,COLO 205 colon,> 100 µM
same,TGI,COLO 205 colon,> 100 µM
same,GI50,DU-145 prostate,> 100 µM
same,TGI,DU-145 prostate,> 100 µM
same,GI50,EKVX NSCLC,> 100 µM
same,TGI,EKVX NSCLC,> 100 µM
same,GI50,HCC-2998 colon,> 100 µM
same,TGI,HCC-2998 colon,> 100 µM
same,GI50,HCT-116 colon,> 100 µM
same,TGI,HCT-116 colon,> 100 µM
same,GI50,HCT-15 colon,> 100 µM
same,TGI,HCT-15 colon,> 100 µM
same,GI50,HL-60(TB) leukemia,55.6 µM
same,TGI,HL-60(TB) leukemia,> 100 µM
same,GI50,HOP-62 NSCLC,> 100 µM
same,TGI,HOP-62 NSCLC,> 100 µM
same,GI50,HOP-92 NSCLC,> 100 µM
same,TGI,HOP-92 NSCLC,> 100 µM
same,GI50,HS 578T breast,> 100 µM
same,TGI,HS 578T breast,> 100 µM
same,GI50,HT29 colon,> 100 µM
same,TGI,HT29 colon,> 100 µM
same,GI50,IGROV1 ovarian,> 100 µM
same,TGI,IGROV1 ovarian,> 100 µM
same,GI50,KM12 colon,> 100 µM
same,TGI,KM12 colon,> 100 µM
same,GI50,LOX IMVI melanoma,> 100 µM
same,TGI,LOX IMVI melanoma,> 100 µM
same,GI50,M14 melanoma,> 100 µM
same,TGI,M14 melanoma,> 100 µM
same,GI50,MALME-3M melanoma,> 100 µM
same,TGI,MALME-3M melanoma,> 100 µM
same,GI50,MCF7 breast,> 100 µM
same,TGI,MCF7 breast,> 100 µM
same,GI50,MDA-MB-231 breast,> 100 µM
same,TGI,MDA-MB-231 breast,> 100 µM
same,GI50,MDA-MB-435 melanoma,> 100 µM
same,TGI,MDA-MB-435 melanoma,> 100 µM
same,GI50,MDA-MB-468 breast,55.5 µM
same,TGI,MDA-MB-468 breast,> 100 µM
same,GI50,MOLT-4 leukemia,36.4 µM
same,TGI,MOLT-4 leukemia,> 100 µM
same,GI50,NCI-H226 lung,> 95.1 µM
same,TGI,NCI-H226 lung,> 100 µM
